Results: ChEMBL document CHEMBL1135130, “Substituted tetrahydrofuroyl-1-phenylalanine derivatives as potent and specific VLA-4 antagonists” (Bioorg Med Chem Lett, 2002)

Tests used:
[1] = molecular target: T1, Integrin alpha-4/beta-1 (Homo sapiens, UniProt P05556+P13612); experiment: Inhibition of alpha4-beta1 (very late) antigen binding with VCAM-1 immunoglobulin; assay type: protein-complex assay
[2] = molecular target: T2, Integrin alpha-4/beta-7 (Homo sapiens, UniProt P13612+P26010); experiment: Inhibition of alpha4-beta7 antigen with MAdCAM immunoglobulin; assay type: protein-complex assay
T2 sequence (P13612 whole entry): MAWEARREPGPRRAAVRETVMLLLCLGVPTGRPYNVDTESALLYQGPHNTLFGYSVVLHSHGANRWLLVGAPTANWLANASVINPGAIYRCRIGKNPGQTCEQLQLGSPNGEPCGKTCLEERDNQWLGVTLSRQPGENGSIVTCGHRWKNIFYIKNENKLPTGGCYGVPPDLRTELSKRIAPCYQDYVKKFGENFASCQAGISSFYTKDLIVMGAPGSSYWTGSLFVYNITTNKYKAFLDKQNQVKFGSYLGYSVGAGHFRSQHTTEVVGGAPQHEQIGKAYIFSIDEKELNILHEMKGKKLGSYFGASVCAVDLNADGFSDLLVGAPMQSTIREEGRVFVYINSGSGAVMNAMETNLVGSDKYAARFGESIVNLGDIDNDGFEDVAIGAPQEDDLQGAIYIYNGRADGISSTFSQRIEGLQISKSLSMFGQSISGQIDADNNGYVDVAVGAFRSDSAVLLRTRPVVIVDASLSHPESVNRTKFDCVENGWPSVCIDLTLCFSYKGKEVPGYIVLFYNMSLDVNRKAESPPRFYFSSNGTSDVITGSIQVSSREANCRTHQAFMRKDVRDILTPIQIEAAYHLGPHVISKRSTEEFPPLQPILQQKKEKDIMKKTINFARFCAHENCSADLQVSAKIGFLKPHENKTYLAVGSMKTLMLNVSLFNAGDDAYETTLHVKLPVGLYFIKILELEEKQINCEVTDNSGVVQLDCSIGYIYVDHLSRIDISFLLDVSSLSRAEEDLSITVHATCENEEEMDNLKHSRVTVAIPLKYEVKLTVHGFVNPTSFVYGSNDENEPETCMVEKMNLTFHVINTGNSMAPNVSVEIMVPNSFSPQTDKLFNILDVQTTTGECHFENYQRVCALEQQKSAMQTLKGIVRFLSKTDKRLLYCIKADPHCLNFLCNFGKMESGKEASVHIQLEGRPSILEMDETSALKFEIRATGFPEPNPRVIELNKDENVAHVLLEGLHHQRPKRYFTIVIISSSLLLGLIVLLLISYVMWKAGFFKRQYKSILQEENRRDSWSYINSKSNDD
T2 sequence (P26010 whole entry): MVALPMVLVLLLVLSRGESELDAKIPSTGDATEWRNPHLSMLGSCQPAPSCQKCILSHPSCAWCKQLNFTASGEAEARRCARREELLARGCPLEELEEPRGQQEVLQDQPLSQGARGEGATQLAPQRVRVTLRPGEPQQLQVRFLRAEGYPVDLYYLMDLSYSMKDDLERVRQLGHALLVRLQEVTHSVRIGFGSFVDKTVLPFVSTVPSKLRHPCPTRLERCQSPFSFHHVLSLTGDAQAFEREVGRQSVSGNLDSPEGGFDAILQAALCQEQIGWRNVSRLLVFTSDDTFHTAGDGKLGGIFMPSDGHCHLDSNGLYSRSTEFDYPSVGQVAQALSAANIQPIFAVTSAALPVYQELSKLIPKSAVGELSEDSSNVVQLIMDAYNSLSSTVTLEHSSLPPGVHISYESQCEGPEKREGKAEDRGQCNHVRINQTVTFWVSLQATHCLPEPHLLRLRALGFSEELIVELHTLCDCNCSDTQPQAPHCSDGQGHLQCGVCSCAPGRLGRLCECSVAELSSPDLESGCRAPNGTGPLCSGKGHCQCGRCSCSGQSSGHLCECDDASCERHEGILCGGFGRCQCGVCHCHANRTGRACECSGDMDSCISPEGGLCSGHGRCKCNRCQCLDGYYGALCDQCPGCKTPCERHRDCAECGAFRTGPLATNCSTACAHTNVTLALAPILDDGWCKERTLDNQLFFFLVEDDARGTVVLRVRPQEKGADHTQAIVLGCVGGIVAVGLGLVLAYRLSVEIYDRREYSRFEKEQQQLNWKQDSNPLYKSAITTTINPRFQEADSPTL

[3] = molecular target: Integrin alpha-4/beta-7 (Homo sapiens) (UniProt P13612+P26010); experiment: Selectivity for alpha4-beta7 to that of alpha4-beta1; assay type: protein-complex assay
[4] = molecular target: T1, Integrin alpha-4/beta-1; experiment: Inhibition of alpha4-beta1 (very late) antigen binding with VCAM-1 immunoglobulin plus 5% human plasma; assay type: cell-free

T1 sequence (P05556 whole entry, one chain of several): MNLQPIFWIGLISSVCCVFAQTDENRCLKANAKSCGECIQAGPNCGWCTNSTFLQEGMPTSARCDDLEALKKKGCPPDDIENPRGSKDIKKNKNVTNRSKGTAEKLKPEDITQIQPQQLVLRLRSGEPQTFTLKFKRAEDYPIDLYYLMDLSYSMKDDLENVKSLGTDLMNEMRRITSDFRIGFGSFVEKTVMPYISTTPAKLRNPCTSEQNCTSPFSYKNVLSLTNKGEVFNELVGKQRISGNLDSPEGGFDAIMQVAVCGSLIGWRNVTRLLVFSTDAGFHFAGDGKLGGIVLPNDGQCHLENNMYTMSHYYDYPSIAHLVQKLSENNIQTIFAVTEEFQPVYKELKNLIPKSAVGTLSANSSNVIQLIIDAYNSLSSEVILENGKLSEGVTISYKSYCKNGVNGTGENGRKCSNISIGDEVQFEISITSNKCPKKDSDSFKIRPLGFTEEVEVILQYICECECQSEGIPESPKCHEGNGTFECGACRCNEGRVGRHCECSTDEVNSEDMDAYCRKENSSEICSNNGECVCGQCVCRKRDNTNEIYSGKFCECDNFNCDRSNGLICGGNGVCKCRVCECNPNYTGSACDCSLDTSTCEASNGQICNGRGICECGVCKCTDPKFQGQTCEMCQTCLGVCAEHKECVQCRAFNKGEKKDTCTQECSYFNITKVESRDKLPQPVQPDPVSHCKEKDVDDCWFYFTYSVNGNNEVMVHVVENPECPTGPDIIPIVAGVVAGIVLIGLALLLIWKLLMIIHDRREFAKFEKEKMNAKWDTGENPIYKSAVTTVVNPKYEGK

Row | Compound | IC50 [1] | IC50 [2] | Ratio [3] | IC50 [4]
1 | COc1ccccc1-c1ccc(C[C@H](NC(=O)[C@@]2(c3ccccc3)CCCO2)C(=O)O)cc1 | 2.2 nM | 56.4 nM | 26 | –
2 | COc1ccccc1-c1ccc(C[C@H](NC(=O)[C@@]2(C(=O)N3CCOCC3)CCCO2)C(=O)O)cc1 | 0.54 nM | 8.49 nM | 16 | 1 nM
3 | COc1ccc(CNC2CC(C)O[C@@]2(C)C(=O)N[C@@H](Cc2ccc(-c3c(OC)cccc3OC)cc2)C(=O)O)cc1 (some centres not stated) | 3.4 nM | 733 nM | 225 | 14.9 nM
4 | COc1ccccc1-c1ccc(C[C@H](NC(=O)[C@@]2(c3ccc(C(C)(C)C)cc3)CCCO2)C(=O)O)cc1 | 1.8 nM | 99.5 nM | 55 | 29 nM
5 | COc1ccccc1-c1ccc(C[C@H](NC(=O)[C@@]2(c3cccc(C(F)(F)F)c3)CCCO2)C(=O)O)cc1 | 4.65 nM | 327 nM | 70 | 290 nM
6 | CCCC[C@]1(C(=O)N[C@@H](Cc2ccc(-c3c(OC)cccc3OC)cc2)C(=O)O)CCCO1 | 0.48 nM | 13.8 nM | 29 | 1.46 nM
7 | COc1cccc(OC)c1-c1ccc(C[C@H](NC(=O)[C@@]2(CCO)CCCO2)C(=O)O)cc1 | 1.56 nM | 16.3 nM | 10 | 7.59 nM
8 | COCC[C@]1(C(=O)N[C@@H](Cc2ccc(-c3c(OC)cccc3OC)cc2)C(=O)O)CCCO1 | 0.7 nM | 16.1 nM | 40 | 1.99 nM
9 | CCOC(=O)[C@]1(C(=O)N[C@@H](Cc2ccc(-c3ccccc3OC)cc2)C(=O)O)CCCO1 | 4.06 nM | 51.1 nM | 13 | 19 nM
10 | COCCCC[C@]1(C(=O)N[C@@H](Cc2ccc(-c3c(OC)cccc3OC)cc2)C(=O)O)CCCO1 | 0.62 nM | 22 nM | 35 | 1.27 nM
11 | COc1ccccc1-c1ccc(C[C@H](NC(=O)[C@@]2(C(=O)N3CCN(C)CC3)CCCO2)C(=O)O)cc1 | 0.59 nM | 23.2 nM | 39 | 1 nM
12 | COc1ccccc1-c1ccc(C[C@H](NC(=O)[C@@]2(C(=O)N3CCCC3)CCCO2)C(=O)O)cc1 | 1.33 nM | 22.9 nM | 17 | 4.42 nM
13 | COc1ccccc1-c1ccc(C[C@H](NC(=O)[C@@]2(c3ccc(C)c(C)c3)CCCO2)C(=O)O)cc1 | 6.18 nM | 374 nM | 60 | 343 nM
14 | COc1ccccc1-c1ccc(C[C@H](NC(=O)[C@@]2(c3ccc(Cl)cc3)CCCO2)C(=O)O)cc1 | 4.09 nM | 275 nM | 67 | 46 nM
15 | COc1cccc(OC)c1-c1ccc(C[C@H](NC(=O)[C@@]2(c3ccc(Cl)cc3)CCCO2)C(=O)O)cc1 | 0.55 nM | 52.2 nM | 95 | 4.75 nM
16 | COc1cccc(OC)c1-c1ccc(C[C@H](NC(=O)[C@@]2(CCCN(C)C)CCCO2)C(=O)O)cc1 | 9.18 nM | 67 nM | 7 | –
17 | COc1ccccc1-c1ccc(C[C@H](NC(=O)[C@@]2(c3ccc(F)cc3)CCCO2)C(=O)O)cc1 | 4.3 nM | 45.7 nM | 11 | 48 nM
18 | COc1cccc(OC)c1-c1ccc(C[C@H](NC(=O)[C@@]2(CCN(C)C)CCCO2)C(=O)O)cc1 | 15.5 nM | 80 nM | 5 | 19.5 nM

Row | Compound | IC50 [1] | IC50 [2] | Ratio [3] | IC50 [4]
19 | COc1ccccc1-c1ccc(C[C@H](NC(=O)[C@@]2(C)CCCO2)C(=O)O)cc1 | 3.9 nM | 45.3 nM | 12 | 60.6 nM
20 | COc1cccc(OC)c1-c1ccc(C[C@H](NC(=O)[C@@]2(C(=O)C(C)C)CCCO2)C(=O)O)cc1 | 0.67 nM | 11.2 nM | 22 | –
21 | COc1cccc(OC)c1-c1ccc(C[C@H](NC(=O)[C@@]2(c3ccc(Cl)c([N+](=O)[O-])c3)CCCO2)C(=O)O)cc1 | 0.47 nM | 45.6 nM | 97 | 2.41 nM
22 | COc1cccc(OC)c1-c1ccc(C[C@H](NC(=O)[C@@]2(CC(C)C)CCCO2)C(=O)O)cc1 | 1.15 nM | 22.3 nM | 19 | 4.02 nM
23 | COc1cccc(OC)c1-c1ccc(C[C@H](NC(=O)[C@@]2(c3cccc(N)c3)CCCO2)C(=O)O)cc1 | 0.92 nM | 26.6 nM | 29 | 5.63 nM
24 | COc1ccccc1-c1ccc(C[C@H](NC(=O)[C@@]2(c3ccc(C(F)(F)F)cc3)CCCO2)C(=O)O)cc1 | 5.31 nM | 504 nM | 95 | 120 nM
25 | COc1cccc(OC)c1-c1ccc(C[C@H](NC(=O)[C@@]2(CCCCO)CCCO2)C(=O)O)cc1 | 255 nM | 245 nM | 1 | 870 nM
26 | COc1cccc(OC)c1-c1ccc(C[C@H](NC(=O)[C@]2(C)OC(C)CC2=O)C(=O)O)cc1 (some centres not stated) | 0.7 nM | 24.5 nM | 35 | 1.32 nM
27 | COc1cccc(OC)c1-c1ccc(C[C@H](NC(=O)[C@@]2(CCCO)CCCO2)C(=O)O)cc1 | 2.12 nM | 35.3 nM | 17 | 3.36 nM
28 | COc1cc(OC)cc([C@]2(C(=O)N[C@@H](Cc3ccc(-c4c(OC)cccc4OC)cc3)C(=O)O)CCCO2)c1 | 1.48 nM | – | – | 5.77 nM
29 | COc1ccccc1-c1ccc(C[C@H](NC(=O)[C@@]2(c3cc(C(F)(F)F)cc(C(F)(F)F)c3)CCCO2)C(=O)O)cc1 | 4.62 nM | 499 nM | 108 | 1100 nM
30 | COc1cccc(OC)c1-c1ccc(C[C@H](NC(=O)[C@@]2(CCCCN(C)C)CCCO2)C(=O)O)cc1 | 16.3 nM | 226 nM | 14 | 22.9 nM
31 | COc1cccc(OC)c1-c1ccc(C[C@H](NC(=O)[C@@]2(c3ncc(C)s3)CCCO2)C(=O)O)cc1 | 0.31 nM | 14.5 nM | 47 | –
32 | COc1cccc(OC)c1-c1ccc(C[C@H](NC(=O)[C@]2(C)OC(C)CC2N)C(=O)O)cc1 (some centres not stated) | 2.6 nM | 149 nM | 57 | –
33 | COc1cccc(OC)c1-c1ccc(C[C@H](NC(=O)[C@@]2(c3nc4ccccc4o3)CCCO2)C(=O)O)cc1 | 0.42 nM | 377 nM | 897 | 2.4 nM
34 | COc1cccc(OC)c1-c1ccc(C[C@H](NC(=O)[C@@]2(C(C)C)CCCO2)C(=O)O)cc1 | 0.7 nM | 6.1 nM | 9 | 7.46 nM
35 | COc1ccccc1-c1ccc(C[C@H](NC(=O)[C@@]2(c3ccc(Br)cc3)CCCO2)C(=O)O)cc1 | 3.62 nM | 232 nM | 64 | 53 nM
36 | COc1cccc(OC)c1-c1ccc(C[C@H](NC(=O)[C@@]2(c3cccc([N+](=O)[O-])c3)CCCO2)C(=O)O)cc1 | 0.23 nM | 19.6 nM | 85 | 0.95 nM
